Measured values published in patent US20120040897A1, “NOVEL DERIVATIVES OF ACYL CYANOPYRROLIDINES” (Sun Pharma Advanced Research Company Ltd., priority 2008, published 2012).

How the values were obtained:
Type in all cases: biochemical
DPP IV = molecular target: T1, DPP IV (Rattus norvegicus, UniProt P14740); experiment: Invitro DPP4 inhibition assay in rat plasma; conditions: substrate Gly-Pro-AMC
T1 construct: from tissue; host or cells: rat plasma
Description: The assay system comprises of […] of rat plasma, 20 mM MgCl2 test compound, 50 uM substrate Gly-Pro-AMC & buffer (25 mM HEPES, 140 mM NaCl, 1% BSA, pH 7.8) in a total reaction volume of 100 μl. The test compound was preincubated with plasma and MgCl2 for 10 minutes at 37° C. followed by further incubation of 20 minutes after addition of substrate. The experiment was repeated using vehicle as control. The AMC (7-Amino-4-Methylcoumarin) liberated in the samples was quantified in a Multilable counter at excitation wavelength 355 nm & emission wavelength 462 nm from a standard AMC plot. The DPP4 activity in each sample was represented as pmoles of AMC released/mg/min. Plasma protein was estimated by Lowry's method.

DPP7 = DPP7 (Homo sapiens, UniProt Q9UHL4); experiment: Percent inhibition of DPP7 activity; conditions: at 10000 nM concentration
Description: (§1) The following Table 39 gives percent inhibition DPP7, DPP8 & DPP9 activity, as determined for exemplary compounds of the invention

DPP8 = DPP8 (Homo sapiens, UniProt Q6V1X1); experiment: Percent inhibition of DPP8 activity; conditions: at 10000 nM concentration
Chain of DPP8 (Q6V1X1 whole entry, species assumed): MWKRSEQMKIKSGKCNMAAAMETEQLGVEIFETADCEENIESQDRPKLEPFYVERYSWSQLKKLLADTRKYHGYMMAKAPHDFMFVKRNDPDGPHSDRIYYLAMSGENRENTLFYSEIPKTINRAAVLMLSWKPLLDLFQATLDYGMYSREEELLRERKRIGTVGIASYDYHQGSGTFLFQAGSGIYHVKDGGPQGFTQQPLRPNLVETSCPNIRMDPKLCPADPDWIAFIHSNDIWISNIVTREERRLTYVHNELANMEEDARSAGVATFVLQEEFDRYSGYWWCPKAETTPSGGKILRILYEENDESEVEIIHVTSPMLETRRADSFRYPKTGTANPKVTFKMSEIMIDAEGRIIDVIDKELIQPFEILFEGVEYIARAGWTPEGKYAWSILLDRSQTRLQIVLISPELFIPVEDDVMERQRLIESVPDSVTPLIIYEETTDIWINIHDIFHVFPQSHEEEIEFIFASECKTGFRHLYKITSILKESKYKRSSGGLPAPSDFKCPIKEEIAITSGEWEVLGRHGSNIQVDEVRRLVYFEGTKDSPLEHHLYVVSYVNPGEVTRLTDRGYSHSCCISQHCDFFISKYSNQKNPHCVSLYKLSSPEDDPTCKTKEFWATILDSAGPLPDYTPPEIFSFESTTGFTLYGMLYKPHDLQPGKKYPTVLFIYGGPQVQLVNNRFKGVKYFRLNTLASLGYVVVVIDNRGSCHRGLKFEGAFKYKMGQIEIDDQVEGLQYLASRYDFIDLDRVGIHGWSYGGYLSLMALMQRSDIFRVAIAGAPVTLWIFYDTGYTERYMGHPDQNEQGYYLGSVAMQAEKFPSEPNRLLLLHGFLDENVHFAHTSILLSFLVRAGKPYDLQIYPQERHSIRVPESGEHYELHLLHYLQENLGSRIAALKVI
Description: as §1

DPP9 = DPP9 (Homo sapiens, UniProt Q86TI2); experiment: Percent inhibition of DPP9 activity; conditions: at 10000 nM concentration
Chain of DPP9 (Q86TI2 whole entry, species assumed): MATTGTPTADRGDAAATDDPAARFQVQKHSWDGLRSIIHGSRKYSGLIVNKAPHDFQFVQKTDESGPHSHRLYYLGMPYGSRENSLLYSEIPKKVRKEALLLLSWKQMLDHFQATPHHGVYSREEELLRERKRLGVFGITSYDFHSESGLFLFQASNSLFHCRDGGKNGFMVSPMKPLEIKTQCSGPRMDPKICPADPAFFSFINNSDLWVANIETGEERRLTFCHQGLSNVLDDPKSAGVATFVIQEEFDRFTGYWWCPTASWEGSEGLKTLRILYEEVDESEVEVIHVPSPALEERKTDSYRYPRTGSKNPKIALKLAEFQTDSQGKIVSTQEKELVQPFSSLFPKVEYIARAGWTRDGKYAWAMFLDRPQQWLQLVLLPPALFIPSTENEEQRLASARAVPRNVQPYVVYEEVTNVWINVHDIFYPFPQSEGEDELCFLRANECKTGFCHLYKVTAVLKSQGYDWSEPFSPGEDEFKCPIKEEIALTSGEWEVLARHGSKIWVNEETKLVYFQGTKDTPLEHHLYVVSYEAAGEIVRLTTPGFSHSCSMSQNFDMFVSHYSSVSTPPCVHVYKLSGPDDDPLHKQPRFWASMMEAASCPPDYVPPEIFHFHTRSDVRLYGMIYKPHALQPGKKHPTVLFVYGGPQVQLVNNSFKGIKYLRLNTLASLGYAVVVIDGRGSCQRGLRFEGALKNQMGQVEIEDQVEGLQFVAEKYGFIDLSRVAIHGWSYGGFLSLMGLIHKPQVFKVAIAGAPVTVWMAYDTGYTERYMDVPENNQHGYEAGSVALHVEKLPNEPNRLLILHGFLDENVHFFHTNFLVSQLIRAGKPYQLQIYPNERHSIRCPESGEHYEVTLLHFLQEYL
Description: as §1

T1 sequence (P14740 37-767 limits assumed): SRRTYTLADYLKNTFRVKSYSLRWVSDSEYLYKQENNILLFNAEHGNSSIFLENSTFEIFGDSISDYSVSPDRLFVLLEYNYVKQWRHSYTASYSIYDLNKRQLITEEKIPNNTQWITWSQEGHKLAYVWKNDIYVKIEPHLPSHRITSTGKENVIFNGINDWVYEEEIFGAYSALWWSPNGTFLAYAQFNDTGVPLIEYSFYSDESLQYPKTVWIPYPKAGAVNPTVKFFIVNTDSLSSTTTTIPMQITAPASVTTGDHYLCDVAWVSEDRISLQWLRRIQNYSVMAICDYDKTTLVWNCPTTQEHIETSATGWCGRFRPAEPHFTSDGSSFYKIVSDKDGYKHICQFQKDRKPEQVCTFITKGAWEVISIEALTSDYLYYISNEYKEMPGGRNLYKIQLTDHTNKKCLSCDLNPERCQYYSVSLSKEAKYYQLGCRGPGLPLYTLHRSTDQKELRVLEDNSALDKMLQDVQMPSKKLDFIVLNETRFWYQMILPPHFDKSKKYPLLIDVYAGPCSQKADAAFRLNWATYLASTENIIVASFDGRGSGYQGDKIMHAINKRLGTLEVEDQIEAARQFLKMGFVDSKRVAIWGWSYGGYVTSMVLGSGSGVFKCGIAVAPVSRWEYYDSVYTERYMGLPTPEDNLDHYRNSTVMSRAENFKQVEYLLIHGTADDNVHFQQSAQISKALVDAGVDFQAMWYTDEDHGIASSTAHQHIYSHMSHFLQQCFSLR

IC50 (DPP IV) [nM]	inhibition at 10 µM (DPP7) [%]	inhibition at 10 µM (DPP8) [%]	inhibition at 10 µM (DPP9) [%]	SMILES
5.98	0	18	29	CC1(C)O[C@@H]2[C@@H](CO[C@@]3(CN4CCC(NCC(=O)N5CCC[C@H]5C#N)CC4)OC(C)(C)O[C@@H]23)O1 [Example 1, 2,3:4,5-di-O-isopropylidene-1-[piperidin-(4-aminoacetylpyrrolidine-2-(S)-carbonitrile}-1-yl]-1-deoxy-β-D-fructopyranose]
18.2	–	–	–	CC1(NCC(=O)N2CCC[C@H]2C#N)CCN(S(=O)(=O)OC[C@H]2O[C@@H]3OC(C)(C)O[C@@H]3[C@H]3OC(C)(C)O[C@H]32)CC1 [Example 112, 1,2:3,4-di-O-isopropylidene-6-[piperidin-{(4-aminoacetylpyrrolidine-2-(S)-carbonitrile)-4-methyl-1-sulfonyl}-1-yl]-D-galactopyranose]
14.3	–	–	–	CCOCCO[C@@H]1O[C@H](CN2CCC(C)(NCC(=O)N3CCC[C@H]3C#N)CC2)[C@H]2OC(C)(C)O[C@@H]12 [Example 123, 2,3-O-Isopropylidene-β-1-O-ethoxyethyl-5-[piperidin-{4-aminoacetylpyrrolidine-2-(S)-carbonitrile}(4-methyl)-1-yl]-5-deoxy-D-ribofuranose]
22.3	–	–	–	CC1(NCC(=O)N2CCC[C@H]2C#N)CCN(C[C@H]2O[C@@H]3OC(C)(C)O[C@@H]3[C@H]2O)CC1 [Example 135, 1,2-O-Isopropylidene-5-[4-methylpiperidin-{4-aminoacetylpyrrolidine-2-(S)-carbonitrile}-1-yl]-5-deoxy-α-D-xylofuranose]
